Experiments:
[1] = target: Recombinant human DDR1 (aa440-876 containing a GST tag) (Homo sapiens (Human), UniProt Q08345); assay: LanthaScreen Eu Kinase Binding Assay DDR1; conditions: Kinase Tracer 178 5 nM, at least two independent replicates; for IC50: read-out: DDR1 pIC50 (converted)
In short: (§1)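 DDR1 (2.5 nM) or DDR2 (1.75 nM) was preincubated with compound 30 min at RT in 50 mM HEPES pH 7.3, 10 mM MgCl2, 1 mM EGTA, 0.01% Tween. Eu-anti-GST and Tracer 178 were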

[2] = target: Recombinant human DDR2 (aa427-855 containing a GST tag) (Homo sapiens (Human), UniProt Q16832); assay: LanthaScreen Eu Kinase Binding Assay DDR2; conditions: Kinase Tracer 178 10 nM, at least two independent replicates; for IC50: read-out: DDR2 pIC50 (converted)
Recombinant human DDR2 (aa427-855 containing a GST tag), sequence (Q16832 427-855): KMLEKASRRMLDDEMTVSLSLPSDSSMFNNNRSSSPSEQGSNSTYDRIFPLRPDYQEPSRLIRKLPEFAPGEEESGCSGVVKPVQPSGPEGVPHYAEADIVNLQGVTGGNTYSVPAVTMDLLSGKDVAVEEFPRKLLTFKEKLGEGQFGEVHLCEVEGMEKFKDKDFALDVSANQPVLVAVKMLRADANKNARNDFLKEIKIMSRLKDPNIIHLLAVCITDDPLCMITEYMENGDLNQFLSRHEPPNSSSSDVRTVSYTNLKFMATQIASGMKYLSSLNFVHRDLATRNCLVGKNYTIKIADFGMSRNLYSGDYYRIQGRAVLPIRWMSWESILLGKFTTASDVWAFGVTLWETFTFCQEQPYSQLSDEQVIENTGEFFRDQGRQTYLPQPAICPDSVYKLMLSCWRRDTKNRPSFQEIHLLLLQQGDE
In short: as §1

Recombinant human DDR1 (aa440-876 containing a GST tag), sequence (Q08345 other isoform, or with tags, fused parts or gaps): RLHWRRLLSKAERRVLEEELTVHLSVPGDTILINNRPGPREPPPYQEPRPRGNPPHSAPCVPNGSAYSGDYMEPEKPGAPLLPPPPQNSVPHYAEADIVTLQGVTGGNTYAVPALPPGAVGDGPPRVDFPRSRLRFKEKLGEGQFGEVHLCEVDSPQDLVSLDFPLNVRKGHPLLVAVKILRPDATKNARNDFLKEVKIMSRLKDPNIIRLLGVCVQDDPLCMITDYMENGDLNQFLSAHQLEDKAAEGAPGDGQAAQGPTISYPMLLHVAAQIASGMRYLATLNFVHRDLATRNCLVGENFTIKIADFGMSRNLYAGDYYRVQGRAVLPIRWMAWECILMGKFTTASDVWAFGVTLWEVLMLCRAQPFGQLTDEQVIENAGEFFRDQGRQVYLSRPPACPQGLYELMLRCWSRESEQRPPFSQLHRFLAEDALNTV

Structure (SMILES) | DDR1 pIC50 [1] | DDR2 pIC50 [2] | IC50 [2] [nM] | IC50 [1] [nM]
Cn1ncc2c(-c3ccc(-n4c(=O)n(CC(=O)NCC(F)(F)F)c5ccccc54)cn3)cncc21 [Example 91, 2-[3-[6-(1-methylpyrazolo[3,4-c]pyridin-4-yl)-3-pyridyl]-2-oxo-benzimidazol-1-yl]-N-(2,2,2-trifluoroethyl)acetamide] | C (7≥pIC50>6) | D (pIC50≤6) |  | 
Cc1cc(-c2cncc3[nH]ncc23)ncc1-n1c(=O)n(CC(=O)NCC(F)(F)F)c2cccc(C)c21 [Example 93, 2-[4-methyl-3-[4-methyl-6-(1H-pyrazolo[3,4-c]pyridin-4-yl)-3-pyridyl]-2-oxo-benzimidazol-1-yl]-N-(2,2,2-trifluoroethyl)acetamide] | A (pIC50>8) |  | 100 to 1000 | 
Cc1nc(-c2cncc3[nH]ncc23)ccc1-n1c(=O)n(CC(=O)NCC(F)(F)F)c2cccc(C)c21 [Example 94, 2-[4-methyl-3-[2-methyl-6-(1H-pyrazolo[3,4-c]pyridin-4-yl)-3-pyridyl]-2-oxo-benzimidazol-1-yl]-N-(2,2,2-trifluoroethyl)acetamide] | A (pIC50>8) |  | 10 to 100 | 
Cc1cccc2c1n(-c1ncc(-c3cncc4[nH]ncc34)cn1)c(=O)n2CC(=O)N[C@H](C)C(F)(F)F [Example 98, 2-[4-methyl-2-oxo-3-[5-(1H-pyrazolo[3,4-c]pyridin-4-yl)pyrimidin-2-yl]benzimidazol-1-yl]-N-[(1R)-2,2,2-trifluoro-1-methyl-ethyl]acetamide] |  | D (pIC50≤6) |  | 100 to 1000
Cc1cc(-n2c(=O)n(CC(=O)NCC(F)(F)F)c3cccc(C)c32)cnc1-c1cncc2[nH]ncc12 [Example 99, 2-[4-methyl-3-[5-methyl-6-(1H-pyrazolo[3,4-c]pyridin-4-yl)-3-pyridyl]-2-oxo-benzimidazol-1-yl]-N-(2,2,2-trifluoroethyl)acetamide] |  | D (pIC50≤6) |  | 100 to 1000
Cc1nc(-n2c(=O)n(CC(=O)N[C@@H](C)C(F)(F)F)c3cccc(C)c32)cnc1-c1cncc2c1cnn2C [Example 101, 2-[4-methyl-3-[6-methyl-5-(1-methylpyrazolo[3,4-c]pyridin-4-yl)pyrazin-2-yl]-2-oxo-benzimidazol-1-yl]-N-[(1S)-2,2,2-trifluoro-1-methyl-ethyl]acetamide] |  | D (pIC50≤6) |  | 100 to 1000
Cc1cc(-n2c(=O)n(CC(=O)NCC(F)(F)F)c3cccc(C)c32)cnc1-c1cncc2[nH]nc(C)c12 [Example 102, 2-[4-methyl-3-[5-methyl-6-(3-methyl-1H-pyrazolo[3,4-c]pyridin-4-yl)-3-pyridyl]-2-oxo-benzimidazol-1-yl]-N-(2,2,2-trifluoroethyl)acetamide] |  | D (pIC50≤6) |  | 100 to 1000
Cc1nc(-c2cncc3[nH]nc(C)c23)ccc1-n1c(=O)n(CC(=O)NCC(F)(F)F)c2cccc(C)c21 [Example 103, 2-[4-methyl-3-[2-methyl-6-(3-methyl-1H-pyrazolo[3,4-c]pyridin-4-yl)-3-pyridyl]-2-oxo-benzimidazol-1-yl]-N-(2,2,2-trifluoroethyl)acetamide] |  | D (pIC50≤6) |  | 10 to 100
Cc1nc(-c2cncc3[nH]nc(C)c23)cnc1-n1c(=O)n(CC(=O)NCC(F)(F)F)c2cccc(C)c21 [Example 104, 2-[4-methyl-3-[3-methyl-5-(3-methyl-1H-pyrazolo[3,4-c]pyridin-4-yl)pyrazin-2-yl]-2-oxo-benzimidazol-1-yl]-N-(2,2,2-trifluoroethyl)acetamide] | D (pIC50≤6) | D (pIC50≤6) |  | 
Cc1nc(-n2c(=O)n(CC(=O)NCC(F)(F)F)c3cccc(C)c32)cnc1-c1cncc2[nH]nc(C)c12 [Example 105, 2-[4-methyl-3-[6-methyl-5-(3-methyl-1H-pyrazolo[3,4-c]pyridin-4-yl)pyrazin-2-yl]-2-oxo-benzimidazol-1-yl]-N-(2,2,2-trifluoroethyl)acetamide] |  |  | 100 to 1000 | 10 to 100
Cc1cc(-c2cncc3c2c(C)nn3C)ncc1-n1c(=O)n(CC(=O)NCC(F)(F)F)c2cccc(C)c21 [Example 108] |  | D (pIC50≤6) |  | 100 to 1000

Other lines, results leading:

DDR1 pIC50 [1] | DDR2 pIC50 [2] | IC50 [2] [nM] | IC50 [1] [nM] | Structure (SMILES)
D (pIC50≤6) | D (pIC50≤6) |  |  | COc1cccc2c1n(-c1ccc(-c3cncc4c3cnn4C)cc1C)c(=O)n2CC(=O)NCC(F)(F)F [Example 81, 2-[4-methoxy-3-[2-methyl-4-(1-methylpyrazolo[3,4-c]pyridin-4-yl)phenyl]-2-oxo-benzimidazol-1-yl]-N-(2,2,2-trifluoroethyl)acetamide]
A (pIC50>8) |  | 10 to 100 |  | Cc1cc(-c2cncc3c2cnn3C)ccc1-n1c(=O)n(CC(=O)N[C@@H](C)C(F)(F)F)c2cccc(C)c21 [Example 82, 2-[4-methyl-3-[2-methyl-4-(1-methylpyrazolo[3,4-c]pyridin-4-yl)phenyl]-2-oxo-benzimidazol-1-yl]-N-[(1S)-2,2,2-trifluoro-1-methyl-ethyl]acetamide]
A (pIC50>8) |  | 100 to 1000 |  | Cc1cc(-c2cncc3c2cnn3C)ccc1-n1c(=O)n(CC(=O)NCC(F)(F)F)c2cccc(Cl)c21 [Example 83, 2-[4-chloro-3-[2-methyl-4-(1-methylpyrazolo[3,4-c]pyridin-4-yl)phenyl]-2-oxo-benzimidazol-1-yl]-N-(2,2,2-trifluoroethyl)acetamide]
A (pIC50>8) |  | 10 to 100 |  | Cc1cc(-c2cncc3c2cnn3C)ccc1-n1c(=O)n(CC(=O)N[C@@H](C)C(F)(F)F)c2cccc(Cl)c21 [Example 84, 2-[4-chloro-3-[2-methyl-4-(1-methylpyrazolo[3,4-c]pyridin-4-yl)phenyl]-2-oxo-benzimidazol-1-yl]-N-[(1S)-2,2,2-trifluoro-1-methyl-ethyl]acetamide]
D (pIC50≤6) | D (pIC50≤6) |  |  | COc1cccc2c1n(-c1ccc(-c3cncc4c3cnn4C)cc1)c(=O)n2CC(=O)N[C@@H](C)C(F)(F)F [Example 85, 2-[4-methoxy-3-[4-(1-methylpyrazolo[3,4-c]pyridin-4-yl)phenyl]-2-oxo-benzimidazol-1-yl]-N-[(1S)-2,2,2-trifluoro-1-methyl-ethyl]acetamide]
 | D (pIC50≤6) |  | 100 to 1000 | Cn1ncc2c(-c3ccc(-n4c(=O)n(CC(=O)NCC(F)(F)F)c5cccc(F)c54)cc3)cncc21 [Example 86, 2-[4-fluoro-3-[4-(1-methylpyrazolo[3,4-c]pyridin-4-yl)phenyl]-2-oxo-benzimidazol-1-yl]-N-(2,2,2-trifluoroethyl)acetamide]
A (pIC50>8) | D (pIC50≤6) |  |  | Cn1ncc2c(-c3ccc(-n4c(=O)n(CC(=O)NCC(F)(F)F)c5ccccc54)c(Cl)c3)cncc21 [Example 87, 2-[3-[2-chloro-4-(1-methylpyrazolo[3,4-c]pyridin-4-yl)phenyl]-2-oxo-benzimidazol-1-yl]-N-(2,2,2-trifluoroethyl)acetamide]
 | D (pIC50≤6) |  | 100 to 1000 | COc1cc(-c2cncc3c2cnn3C)ccc1-n1c(=O)n(CC(=O)NCC(F)(F)F)c2ccccc21 [Example 88, 2-[3-[2-methoxy-4-(1-methylpyrazolo[3,4-c]pyridin-4-yl)phenyl]-2-oxo-benzimidazol-1-yl]-N-(2,2,2-trifluoroethyl)acetamide]
 | D (pIC50≤6) |  | 10 to 100 | Cn1ncc2c(-c3cc(F)c(-n4c(=O)n(CC(=O)NCC(F)(F)F)c5ccccc54)c(F)c3)cncc21 [Example 89, 2-[3-[2,6-difluoro-4-(1-methylpyrazolo[3,4-c]pyridin-4-yl)phenyl]-2-oxo-benzimidazol-1-yl]-N-(2,2,2-trifluoroethyl)acetamide]
 | D (pIC50≤6) |  | 100 to 1000 | Cc1cc(-c2cncc3c2cnn3C)cc(C)c1-n1c(=O)n(CC(=O)NCC(F)(F)F)c2ccccc21 [Example 90, 2-[3-[2,6-dimethyl-4-(1-methylpyrazolo[3,4-c]pyridin-4-yl)phenyl]-2-oxo-benzimidazol-1-yl]-N-(2,2,2-trifluoroethyl)acetamide]
A (pIC50>8) |  | 100 to 1000 |  | Cc1nc(-c2cncc3c2cnn3C)ccc1-n1c(=O)n(CC(=O)NCC(F)(F)F)c2cccc(C)c21 [Example 95, 2-[4-methyl-3-[2-methyl-6-(1-methylpyrazolo[3,4-c]pyridin-4-yl)-3-pyridyl]-2-oxo-benzimidazol-1-yl]-N-(2,2,2-trifluoroethyl)acetamide]
A (pIC50>8) |  | 100 to 1000 |  | Cc1nc(-c2cncc3c2cnn3C)cnc1-n1c(=O)n(CC(=O)NCC(F)(F)F)c2cccc(C)c21 [Example 96, 2-[4-methyl-3-[3-methyl-5-(1-methylpyrazolo[3,4-c]pyridin-4-yl)pyrazin-2-yl]-2-oxo-benzimidazol-1-yl]-N-(2,2,2-trifluoroethyl)acetamide]
D (pIC50≤6) | D (pIC50≤6) |  |  | Cc1cc(-n2c(=O)n(CC(=O)NCC(F)(F)F)c3cccc(C)c32)cnc1-c1cncc2c1cnn2C [Example 97, 2-[4-methyl-3-[5-methyl-6-(1-methylpyrazolo[3,4-c]pyridin-4-yl)-3-pyridyl]-2-oxo-benzimidazol-1-yl]-N-(2,2,2-trifluoroethyl)acetamide]
 |  | 100 to 1000 | 10 to 100 | Cc1cc(-c2cncc3c2cnn3C)ncc1-n1c(=O)n(CC(=O)N[C@@H](C)C(F)(F)F)c2cccc(C)c21 [Example 106]
 | D (pIC50≤6) |  | 100 to 1000 | Cc1cc(-c2cncc3c2cnn3C)ncc1-n1c(=O)n(CC(=O)N[C@H](C)C(F)(F)F)c2cccc(C)c21 [Example 107]
D (pIC50≤6) | D (pIC50≤6) |  |  | Cc1ncc2c(cnn2C)c1-c1ccc(-n2c(=O)n(CC(=O)NCC(F)(F)F)c3cccc(C)c32)cn1 [Example 109]

Reference: US20260055102A1 (Redx Pharma Limited, priority 2022, published 2026)
